Series [1] deals with Autotaxin (Mus musculus, UniProt Q9R1E6). Put plainly: Inhibition of mouse ATX using LPC as substrate preincubated with compound for 15 mins followed by substrate addition measured after 30 mins by Amplex Red reagent based fluorescence analysis.
Series [2] deals with T1, Autotaxin (Homo sapiens, UniProt Q13822). Put plainly: Inhibition of human ATX using LPC as substrate preincubated with compound for 15 mins followed by substrate addition measured after 30 mins by Amplex Red reagent based fluorescence analysis.
A short description of series [3]: Kinetic solubility of compound in simulated gastric fluid at pH 1.7 by HPLC analysis.
Series [4] can be described thus: Kinetic solubility of compound in simulated intestinal fluid at pH 6.6 by HPLC analysis.
Series [5] can be described thus: Kinetic solubility of compound in PBS at pH 7.4 by HPLC analysis.
Series [6] can be described thus: Cytotoxicity against wild type Fibroblast (unknown origin) assessed as redcution in cell growth measured after 48 hrs by crystal violet staining based analysis. The conditions noted are these: wild type fibroblasts.
Series [7] relates to A549. Description: Antiproliferative activity against human A549 cells assessed as redcution in cell growth measured after 24 hrs by MTT assay. The series is classed as functional, cell-based. The conditions noted are these: dose 0.5-50 µM.
In series [8] the test system is A549. Put plainly: Inhibition of cell migration in human A549 cells at 5 uM incubated for 24 hrs by crystal violet staining based transwell assay. Format: functional.
Series [9] addresses T1, Autotaxin. Description: Mixed type inhibition of human ATX assessed as inhibition constant using LPC as substrate by Lineweaver-Burk plot analysis.
The test system of series [10] is A549. Description: Antitumor activity against human A549 cells assessed as redcution in cell viability measured after 24 hrs by MTT assay. Format: functional, cell-based. Particulars: dose 0.5-50 µM. (In general: Tetrazolium dyes change colour on reduction, which living cells bring about.)
Series [11] deals with 3',5'-cyclic phosphodiesterase. Put plainly: Inhibition of PDE (unknown origin). The series is classed as protein assay, Homo sapiens.
The subject of series [12] is CO[C@](C(=O)Nc1c2c(nn1-c1ccc(Br)cc1)CSC2)(c1ccccc1)C(F)(F)F. Description: (§1) Mixed type inhibition of human ATX assessed as km using LPC as substrate by Lineweaver-Burk plot analysis.
Series [13] deals with O=C(Nc1c2c(nn1-c1ccc(Br)cc1)CSC2)c1cc(Cl)cc(Cl)c1. The description is as §1.

≈ marks a conversion by molar mass, not a printed value. Calls of active or inactive are those of the source. The rule behind the calls is not given here.

On to `NS(=O)(=O)c1ccc(-n2nc3c(c2NC(=O)c2cccc4ccccc24)CSC3)cc1`, for which the IC50 – broadly, the concentration that gives 50% inhibition – on Autotaxin [1] was determined as 79.8 µM.

With `O=C(CN1CCN(C(=O)c2cc(Cl)cc(Cl)c2)CC1)Nc1ccn(-c2ccc(Br)cc2)n1`, the IC50 at Autotaxin [2] was 25 µM.

Consider `CCc1nc2c(C)cc(N3CCN(CC(=O)N4CC(O)C4)CC3)cn2c1N(C)c1nc(-c2ccc(F)cc2)c(C#N)s1` [ZIRITAXESTAT], for which the figures for the kinetic solubility in series [3], in series [4] and in series [5] were 200 µM (≈ 118 µg/mL), 97 µM (≈ 57.1 µg/mL) and 96.9 µM (≈ 57 µg/mL), respectively.

On to `O=C(Nc1c2c(nn1-c1ccc(F)c(Cl)c1)CSC2)c1cccc2ccccc12`, for which the IC50 on Autotaxin [1] worked out at 40.8 µM.

`CC(C)(C)n1nc2c(c1NC(=O)c1cccc3ccccc13)CSC2`: the IC50 on Autotaxin [1] was greater than 100 µM.

Take `O=C(Nc1c2c(nn1-c1ccc(Br)cc1)CSC2)c1cccc2ccccc12`: the IC50 was determined as 4.6 µM at Autotaxin [2] and 5.3 µM at Autotaxin [1].

Turning to `O=C(Cc1ccc(F)cc1)Nc1c2c(nn1-c1ccncc1)CSC2`, the IC50 on Autotaxin [2] is greater than 50 µM.

On to `O=C(Cc1ccc2ccccc2c1)Nc1c2c(nn1-c1ccc(Br)cc1)CSC2`, for which the IC50 at Autotaxin [2] stood at 21.2 µM.

Consider `CO[C@](C(=O)Nc1c2c(nn1-c1ccc(Br)cc1)CSC2)(c1ccccc1)C(F)(F)F`, for which the half-maximal inhibitory concentration (IC50) at Autotaxin [2] was 2 µM. In addition, the results for the kinetic solubility in series [3], in series [4] and in series [5] were 16.7 µM (≈ 8.58 µg/mL), 2.55 µM (≈ 1.31 µg/mL) and 1.26 µM (≈ 0.646 µg/mL), respectively. Moreover, the CC50 (commonly the concentration that lowers cell viability or growth by half) at 48 h in series [6] was greater than 100 µM. Moreover, the Activity entry in the series with A549 [7] and with A549 [10] was “Dose-Dependent Effect” throughout. The inhibition result in the series with A549 [8] is “Active”. Further, the Ki (as a rule, the dissociation constant of the complex between target and ligand, obtained from inhibition or displacement) on Autotaxin [9] came to 6.83 µM.

Consider `O=C(Nc1c2c(nn1-c1ccc([N+](=O)[O-])cc1)CSC2)c1cccc2ccccc12`, for which the values for the IC50 (at Autotaxin [2]; on Autotaxin [1]; in [11]) were 16 µM, 38.4 µM and 73 µM, respectively. Also, the kinetic solubility – broadly, solubility judged after dilution from a stock solution rather than from solid – in [3] is 2.73 µM (≈ 1.14 µg/mL). Besides, the CC50 at 48 h in series [6] is greater than 100 µM.

As for `O=C(Nc1c2c(nn1-c1ccncc1)CSC2)c1cccc2ccccc12`, the IC50 stood at 5.3 µM at Autotaxin [2] and 2.7 µM on Autotaxin [1].

For `O=C(Nc1c2c(nn1-c1ccc(Br)cc1)CSC2)c1cc(F)cc(C(F)(F)F)c1`, on Autotaxin [2], the IC50 was found to be 11.2 µM.

Take “Autotaxin (Homo sapiens) (from UniProt Q13822)”: the Km (as a rule, the substrate concentration at which the rate is half of its maximum) worked out at 5.61 µM in series [12] and 17.1 µM in series [13].

In the case of `Cc1ccc(-n2nc3c(c2NC(=O)c2cccc4ccccc24)CSC3)cc1Cl`, the IC50 at Autotaxin [1] came to 80 µM.

Turning to `O=C1S/C(=C\c2ccc(OCc3ccc(B(O)O)cc3)cc2)C(=O)N1Cc1ccc(F)cc1`, the solubility (kinetic) in [3] is 3.08 µM (≈ 1.43 µg/mL); in series [4], 1.05 µM (≈ 0.486 µg/mL).

As for `O=C(Nc1c2c(nn1-c1ccc(Br)cc1)CSC2)c1ccc(C(F)(F)F)cc1`, on Autotaxin [2], the IC50 stood at 37.3 µM.

`O=C(CCN1CCN(C(=O)OCc2cc(Cl)cc(Cl)c2)CC1)c1ccc2[nH]c(=O)oc2c1`: the kinetic solubility was 15.4 µM (≈ 7.35 µg/mL) in [3] and 1.22 µM (≈ 0.584 µg/mL) in series [5].

Regarding `COC(=O)c1ccc(-n2nc3c(c2NC(=O)c2cccc4ccccc24)CSC3)cc1`, at Autotaxin [1], the IC50 was greater than 100 µM.

Take `O=C(Nc1c2c(nn1-c1ccc(Br)cc1)CSC2)c1cc(Cl)cc(Cl)c1`: the values for the IC50 at Autotaxin [2] and at Autotaxin [1] were 6.7 µM and 1.8 µM, respectively. The kinetic solubility in series [3] is 5.02 µM (≈ 2.36 µg/mL); in [4] it was 4.18 µM (≈ 1.96 µg/mL). For the same molecule, the CC50 at 48 h in series [6] was greater than 100 µM. Besides, the Activity entry with A549 [7] and in the series with A549 [10] was “Dose-Dependent Effect” each time. Also, the inhibition result in the series on A549 [8] was “Active”. Moreover, at Autotaxin [9], the inhibitory constant (Ki) was determined as 6.26 µM.

`O=C(O)c1ccc(-n2nc3c(c2NC(=O)c2cccc4ccccc24)CSC3)cc1`: the IC50 on Autotaxin [1] amounted to 48.3 µM.

As for `O=C(Cc1ccc(F)cc1)Nc1c2c(nn1-c1ccc(Br)cc1)CSC2`, the IC50 at Autotaxin [2] came to 7.6 µM.

Consider `O=C(Nc1c2c(nn1-c1ccc(Cl)c(Cl)c1)CSC2)c1cccc2ccccc12`, for which the IC50 at Autotaxin [1] came out at 40 µM.

`O=C(Nc1c2c(nn1-c1ccc(Br)cc1)COC2)c1cc(Cl)cc(Cl)c1`: the IC50 at Autotaxin [2] was greater than 100 µM.

For the molecule `O=C(Nc1c2c(nn1-c1cc(F)cc(F)c1)CSC2)c1cccc2ccccc12`, the IC50 on Autotaxin [1] came out at 53.7 µM.

`Cc1cc(C(=O)Nc2c3c(nn2-c2ccc(Br)cc2)CSC3)ccc1F`: the IC50 at Autotaxin [2] is 41.8 µM.

In the case of `O=C(Nc1c2c(nn1-c1ccc(Br)cc1)CS(=O)(=O)C2)c1cccc2ccccc12`, at Autotaxin [2], the IC50 is greater than 100 µM.

With `O=C(Nc1c2c(nn1-c1ccc(F)c(F)c1)CSC2)c1cccc2ccccc12`, the IC50 at Autotaxin [1] is 63 µM.

Turning to `O=C(Nc1c2c(nn1-c1ccc(OC(F)(F)F)cc1)CSC2)c1cccc2ccccc12`, the IC50 on Autotaxin [1] was 22.1 µM.

Consider `O=C(c1cc(Cl)cc(Cl)c1)N1CCN(c2c3c(nn2-c2ccc(Br)cc2)CSC3)CC1`, for which the IC50 on Autotaxin [2] worked out at 70 µM.

Consider `O=C(Nc1c2c(nn1-c1ccccc1)CSC2)c1cccc2ccccc12`, for which the IC50 on Autotaxin [2] and on Autotaxin [1] was greater than 100 µM in each case.

`O=C(Nc1c2c(nn1-c1cnccn1)CSC2)c1cccc2ccccc12`: the figures for the IC50 (on Autotaxin [2]; on Autotaxin [1]; in [11]) were 0.9 µM, 1.8 µM and 0.33 µM, respectively.

As for `O=C(Nc1c2c(nn1-c1ccc(Br)cc1)CSC2)c1ccc2ccccc2c1`, the IC50 at Autotaxin [2] was found to be 12.1 µM.

Consider `CO[C@](C(=O)Nc1c2c(nn1-c1ccc(Br)cc1)CCC2)(c1ccccc1)C(F)(F)F`, for which the IC50 on Autotaxin [2] was found to be 24.4 µM.

For `COc1ccc(-n2nc3c(c2NC(=O)c2cccc4ccccc24)CSC3)cc1`, the IC50 on Autotaxin [2] and on Autotaxin [1] was greater than 100 µM each time.

Consider `O=C(Nc1c2c(nn1-c1ccc(C(F)(F)F)cc1)CSC2)c1cccc2ccccc12`, for which the IC50 on Autotaxin [1] stood at 46.6 µM.

Turning to `O=C(Nc1c2c(nn1-c1ccc(Br)cc1)CCC2)c1cc(Cl)cc(Cl)c1`, at Autotaxin [2], the IC50 was 6.6 µM.

The values above are taken from ChEMBL document CHEMBL5346885, “"Hit" to lead optimization and chemoinformatic studies for a new series of Autotaxin inhibitors” (Eur J Med Chem, 2023).
